Reference: paper PMC10287695, “Non-covalent inhibitors of thioredoxin glutathione reductase with schistosomicidal activity in vivo” (Nature Communications, 2023)
Where two headings read alike, the source gives them in different places.

What was measured:
Human GR = biological target: T1, Human GR (Homo sapiens, UniProt P00390); experiment: Human GR enzyme inhibition (GSSG reduction, NADPH oxidation); assay type: biochemical; conditions: for inhibition at 15 µM / inhibition at 30 µM / inhibition at 66.7 µM: hGR, read-out: % inhibition; for inhibition at 15 µM: compound 15 µM; for inhibition at 30 µM: compound 30 µM; for inhibition at 66.7 µM: compound 66.7 µM
T1 construct: made in house
T1 sequence (P00390 44-522): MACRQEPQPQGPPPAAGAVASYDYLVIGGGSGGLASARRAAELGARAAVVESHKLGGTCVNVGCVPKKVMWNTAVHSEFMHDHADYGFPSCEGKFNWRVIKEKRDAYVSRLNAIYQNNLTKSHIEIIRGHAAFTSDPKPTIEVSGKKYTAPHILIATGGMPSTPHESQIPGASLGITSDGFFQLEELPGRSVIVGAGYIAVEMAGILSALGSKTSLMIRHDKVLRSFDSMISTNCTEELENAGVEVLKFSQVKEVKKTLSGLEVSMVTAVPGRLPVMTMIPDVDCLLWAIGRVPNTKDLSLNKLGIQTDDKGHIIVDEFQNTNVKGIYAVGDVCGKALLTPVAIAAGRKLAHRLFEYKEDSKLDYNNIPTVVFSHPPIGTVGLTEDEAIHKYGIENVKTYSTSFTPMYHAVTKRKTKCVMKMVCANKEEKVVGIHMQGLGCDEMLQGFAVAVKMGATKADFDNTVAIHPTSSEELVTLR

Human TrxR1 = biological target: T2, Human TrxR1 (Homo sapiens, UniProt Q16881); experiment: Human TrxR1 enzyme inhibition (DTNB reduction); assay type: biochemical; conditions: for IC50: 15 min preincubation (enzyme + 100 µM NADPH + compound), read-out: Human TrxR1 IC50
T2 construct: made in house
T2 sequence (Q16881 1-499 isoform Q16881-5): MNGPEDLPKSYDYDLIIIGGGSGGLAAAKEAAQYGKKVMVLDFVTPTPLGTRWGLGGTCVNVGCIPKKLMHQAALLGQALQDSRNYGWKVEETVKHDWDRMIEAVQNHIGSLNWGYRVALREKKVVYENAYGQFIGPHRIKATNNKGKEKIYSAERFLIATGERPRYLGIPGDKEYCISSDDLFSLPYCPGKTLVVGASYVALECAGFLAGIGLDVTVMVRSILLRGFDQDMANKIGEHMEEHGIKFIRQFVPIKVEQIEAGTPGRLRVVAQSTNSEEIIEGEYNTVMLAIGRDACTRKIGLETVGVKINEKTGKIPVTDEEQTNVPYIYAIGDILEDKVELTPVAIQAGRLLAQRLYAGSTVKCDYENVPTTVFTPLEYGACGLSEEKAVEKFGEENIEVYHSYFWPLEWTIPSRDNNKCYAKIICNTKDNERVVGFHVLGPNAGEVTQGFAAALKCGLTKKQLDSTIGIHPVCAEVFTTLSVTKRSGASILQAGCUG

S. mansoni adult worms = experiment: GSH/GSSG ratio in ex vivo adult worms; assay type: cell-based

CC1C(NCc2cn(C3OCC(O)C(O)C3O)c3ccccc23)CC2CC1C2(C)C (stereo not shown) [Compound 9]
Human GR (inhibition at 66.7 µM) (Human GR): n.i.
inhibition at 15 µM (Human GR; 15 minutes pre-incubation): -0.142%
inhibition at 30 µM (Human GR; 15 minutes pre-incubation): -2.5%
inhibition at 66.7 µM (Human GR; 15 minutes pre-incubation): -1.69%
inhibition at 15 µM (Human GR; 6 hours pre-incubation): -0.844%
inhibition at 30 µM (Human GR; 6 hours pre-incubation): -1.45%
inhibition at 66.7 µM (Human GR; 6 hours pre-incubation): -3.11%
IC50 (Human TrxR1): 70.5 ± 11.4 µM
inhibition at 15 µM (Human TrxR1; hsTrxR, 15 minutes pre-incubation, compound 15 µM): 5.09%
inhibition at 30 µM (Human TrxR1; hsTrxR, 15 minutes pre-incubation, compound 30 µM): 8.68%
inhibition at 66.7 µM (Human TrxR1; hsTrxR, 15 minutes pre-incubation, compound 66.7 µM, read-out: % inhibition): 14.5%
Ratio GSH/GSSG (S. mansoni adult worms; 1 hr, second data set (r136-144), baseline 63.5617, DMSO 63.4928): 62.1962
Reduction (%) in GSH/GSSG ratio (S. mansoni adult worms; 1 hr, third data set): 1.8641%
Ratio GSH/GSSG (S. mansoni adult worms; 1 hr, third data set (r147-159), 0hr 72.45): 71.10
% Ratio GSH/GSSG (S. mansoni adult worms; 1 hr, third data set (r147-159), 0hr = 100): 98.1359%
Reduction (%) in GSH/GSSG ratio (S. mansoni adult worms; 1 hr, third data set, (values given as fraction)): 0.0186%
Ratio GSH/GSSG (S. mansoni adult worms; 3 hr, second data set (r136-144), baseline 63.5617, DMSO 203.124): 55.0997
Reduction (%) in GSH/GSSG ratio (S. mansoni adult worms; 3 hr, third data set): 10.4658%
Ratio GSH/GSSG (S. mansoni adult worms; 3 hr, third data set (r147-159), 0hr 72.45): 64.87
% Ratio GSH/GSSG (S. mansoni adult worms; 3 hr, third data set (r147-159), 0hr = 100): 89.5342%
Reduction (%) in GSH/GSSG ratio (S. mansoni adult worms; 3 hr, third data set, (values given as fraction)): 0.10%
Decrease (%) in GSH/GSSG ratio (S. mansoni adult worms; adult worms, 3 h exposure to compounds at 50 μM): 9%

C[C@@H]1[C@H]2C[C@@H](C[C@H]1NCc1nc3ccccc3n1C)C2(C)C [Compound 12]
Human GR (inhibition at 66.7 µM) (Human GR): n.i.
inhibition at 66.7 µM (Human TrxR1; 66.7 µM, 6 h preincubation, read-out: Human TrxR1 IC50 (µM) or inhibition (%) at 66.7 µM: inhibition): 28.6%
IC50 (Human TrxR1): > 66.7 µM
% Ratio GSH/GSSG (S. mansoni adult worms; adult worms ex vivo, 1 hr): 59.2209%
Reduction (%) in GSH/GSSG ratio (S. mansoni adult worms; adult worms ex vivo, 1 hr, relative to 0hr): 1.36%
% Ratio GSH/GSSG (S. mansoni adult worms; adult worms ex vivo, 3 hr): 58.1972%
